Data published in patent US20170157155A1, “METHOD OF TREATMENT OF NASOPHARYNGEAL CANCER” (Millennium Pharmaceuticals, Inc., priority 2012, published 2017).

Key:
[1] = tested on: relapsed or refractory mantle cell lymphoma; conditions: international multi-center Phase II study; cited from earlier work
[2] = tested on: nasopharyngeal cancer; experiment: Clinical response of nasopharyngeal cancer patients given the compound of formula (III-A) IV twice weekly; format: in vivo, human; conditions: for clinical response: IV injection days 1, 4, 8 and 11 of a 21-day cycle
Method: (1) Tissue Microarray (obtained from US Biomax, Inc.) of primary nasopharyngeal cancer (n=35) (2) Tissue Microarray of metastatic nasopharyngeal cancer (obtained from US Biomax, Inc.) (n=15) (3) Tissue Microarray of other histologies of head and neck cancers (obtained from US Biomax, Inc.) (n=68) (4) Archival primary tumor biopsy samples of patients with head and neck squamous cell cancers (n=14). All samples were obtained under the appropriate informed consent. The patients were administered the compound of formula (III-A) on a twice-weekly schedule (days 1, 4, 8 and 11 of a 21-day cycle) as an IV injection. Of the primary tumor samples in (4), there were three patients with nasopharyngeal cancer.

[3] = tested on: hematological and solid tumor xenograft models; conditions: range of hematological and solid tumor xenograft models; cited from earlier work
[4] = on exposure to aqueous solution or plasma; cited from earlier work

SMILES	activity in patients [1]	clinical response ([2]; Patient 1, metastatic nasopharyngeal cancer of a squamous cell type, tumor NFκB p65 H-score 300)	Responder/Non-responder ([2]; Patient 1, H-score 300)	clinical response ([2]; Patient 2, nasopharyngeal cancer, tumor NFκB p65 H-score 200)	Responder/Non-responder ([2]; Patient 2, H-score 200)	clinical response ([2]; Patient 3, nasopharyngeal cancer, tumor NFκB p65 H-score 160)	Responder/Non-responder ([2]; Patient 3, H-score 160)	anti-tumor activity [3]	hydrolysis to the active form MLN2238 [4]
CC(C)C[C@H](NC(=O)[C@H](Cc1ccccc1)NC(=O)c1cnccn1)B(O)O [bortezomib, N-2-pyrazinecarbonyl-L-phenylalanine-L-leucineboronic acid]	confirming the activity								
CC(C)C[C@H](NC(=O)CNC(=O)c1cc(Cl)ccc1Cl)B1OC(=O)C(CC(=O)O)(CC(=O)O)O1 [formula (III-A), 2,2′-{2-[(1R)-1-({[(2,5-dichlorobenzoyl)amino]acetyl}amino)-3-methylbutyl]-5-oxo-1,3,2-dioxaborolane-4,4-diyl}diacetic acid]		durable partial response	Responder	disease progressed within 4 cycles	Non-responder	progressive disease	Non-responder	demonstrated anti-tumor activity	rapidly hydrolyzes
